Results: patent publication US9050298B2, “Method of treating ischemia/reperfusion injuries to a heart with netrin-1” (The Regents of the University of California, priority 2010, dated 2015)
“Also recorded” adds a separate entry of the source.

Assays:
[1] = system: Bovine aortic endothelial cells (BAEC); assay: DCC expression in NO donor-treated BAECs; format: cell-based; conditions: NO donor 1 mmol/L, 2 hr
[2] = system: isolated cardiomyocytes; assay: DCC expression in NO donor-treated isolated cardiomyocytes; format: cell-based, mouse; conditions: NO donor 1 mmol/L, 2 hr
Method: NaCl 130, KCl 5.4, MgSO4 1, NaH2PO4 0.6, D-Glucose 10, HEPES 10, which was continuously bubbled with 95% O2+5% CO2. The enzymatic digestion was commenced by adding collagenase type II (Worthington Biochemical Corp., Lakewood, N.J., 0.56 mg/ml each) to the perfusion buffer and continued for 20 min. The heart was cut down and placed in the Petri dish with perfusion solution. The digested ventricular tissues were cut into 2-3 mm pieces and gently aspirated with a transfer pipette to facilitate cell dissociation. The myocytes were allowed to sediment by gravity for 8-10 min in the 15-ml Falcon tubes.

[3] = system: infarct size post I/R insult; conditions: nitrite supplementation; cited from earlier work
[4] = system: cardiac NO production; assay: ESR detection of nitric oxide in Langendorff perfused heart homogenates; set-up: species or system mouse; conditions: agent prior to netrin-1, I/R; vs. untreated I/R controls
Method: Langendorff perfusion: The mice were anesthetized with intraperitoneal pentobarbitone (60 mg/kg). Hearts were harvested and rapidly transferred into ice-cold Krebs-Henseleit buffer (KHB). […] NaCl118.0, KCl 4.7, CaCl2 2.5, MgSO4 1.2, KH2PO4 1.2, NaHCO3 25.0, D-Glucose 10 at constant pressure (80±1 mmHg) using a peristaltic pump and feedback system. For no I/R setting, hearts were perfused with KHB or netrin-1 for 120 min. […] These experimental protocols are illustrated in FIG. 7. Electron spin resonance detection of nitric oxide radical: Bioavailable nitric oxide radical (NO) from cells or tissues was detected using electron spin resonance (ESR) as described. See Nguyen et al. (2006) PNAS USA 103:6530-5; and Youn et al. (2009) Circ. Res 104:50-59, which are herein incorporated by reference. […] Gently collected homogenates or cell suspensions were snap-frozen in liquid nitrogen and loaded into a finger Dewar for analysis with an eScan electron spin resonance (ESR) spectrophotometer (Bruker, Freemont, Calif.) at the following settings: center field, 3410; field sweep, 100 G; microwave frequency, 9.73 GHz; microwave power, 13.26 mW; modulation amplitude, 9.82 G; 512 points resolution and receiver gain, 356.

[5] = system: mouse heart ischemia/reperfusion injury; assay: Langendorff I/R, netrin-1 given post-conditionally at onset of reperfusion, TTC infarct size; conditions: for Infarct size, inhibitor alone: given at reperfusion without netrin-1; for Effect of netrin-1 postconditioning on infarct size, inhibitor co-treatment: inhibitor with netrin-1
Description: FIG. 17 diagrammatically provides the experimental protocols of the isolated C57BL/6J WT, DCC +/+ and +/−mice heart experiments with netrin-1 added post-conditionally. Data included in up to FIG. 16 indicated preventative role of netrin-1 in cardiac I/R injury when netrin-1 was given pre-conditionally ([…]). These new set of experiments are however critical in understanding if netrin-1 exerts cardioprotective effects when delivered as a post-conditioning agent at the onset of reperfusion (i.e. together with PTCA procedure). All hearts were stabilized for 40 min prior to experiments. Control hearts received 20 min of global no-flow ischemia followed by 60 min of reperfusion. Netrin-1 was given at the onset of the reperfusion. The signaling pathway inhibitors were given either alone accordingly or with the netrin-1 treatment. The arrows indicate the time for myocardial infarct sizing with 2,3,5-TTC (TTC) and for protein analysis by Western blot (WB). ▪=global no-flow ischemia.
Langendorff perfused hearts isolated from C57BL/6J wild-type (WT) control mice or DCC +/−mice underwent 20-min of global ischemia followed by 60-min of reperfusion. DCC (deleted in colorectal cancer) is one of the netrin-1 receptors we found to be however specifically involved in netrin-1 preconditioning induced cardioprotection. Netrin-1 was infused postconditionally at the onset of reperfusion at 100 ng/mL concentration with and without U0126, a specific MEK1/2 inhibitor, or 2-Phenyl-4,4,5,5-tetramethylimidazoline-1-oxyl-3-oxide (PTIO), a nitric oxide (NO)-scavenger. Infarct size was determined to evaluate the severity of myocardial injury using TTC staining, and protein kinase activations determined by Western blot analysis.

[6] = system: mouse heart ischemia/reperfusion injury; assay: Langendorff perfused mouse heart, global ischemia/reperfusion, infarct size by TTC (netrin-1 pre-perfusion); conditions: agent 30 min prior to netrin-1 (100 ng/ml, 45 min), then I/R
Method: Langendorff perfusion: The mice were anesthetized with intraperitoneal pentobarbitone (60 mg/kg). Hearts were harvested and rapidly transferred into ice-cold Krebs-Henseleit buffer (KHB). […] NaCl118.0, KCl 4.7, CaCl2 2.5, MgSO4 1.2, KH2PO4 1.2, NaHCO3 25.0, D-Glucose 10 at constant pressure (80±1 mmHg) using a peristaltic pump and feedback system. For no I/R setting, hearts were perfused with KHB or netrin-1 for 120 min. […] These experimental protocols are illustrated in FIG. 7. Infarct size analysis: […] The heart slices were then digitally photographed for planimetry using NIH Image 1.62. Infarct size is expressed as an infarct-to-risk zone ratio (the risk zone is the whole ventricular volume in this global ischemic model).

[7] = system: I/R-induced cardiac apoptosis; assay: TUNEL apoptosis detection in post-I/R heart sections; set-up: species or system mouse; conditions: agent + netrin-1, I/R
Method: Detection of apoptosis: Apoptosis was detected by the apoptosis detection kit (Chemicon International, Inc., Billerica, Mass.) according to the manufacturer's protocol. At the end of the experimental protocols frozen heart sections (12 μm) were fixed with 1% formalin for 10 min at room temperature (RT) and washed twice in PBS, permeabilized with ethanol/acetic acid (2:1) for 5 min at −20° C., washed twice in PBS, and then incubated for >10 sec with the equilibration buffer. Subsequently, the sections were incubated for 1 hr with DIG-conjugated dUTP and TdT enzymes at 37° C., and then for 10 min in the stop buffer at room temperature (RT), and finally washed three times in PBS. The sections were then incubated with FITC-conjugated anti-DIG antibody for 30 min at RT, and washed three times in PBS. Cover-slipped sections were mounted with medium containing 0.5 μg/ml of propidium iodide. […] TUNEL assay was performed to determine whether netrin-1 inhibits apoptotic cell death induced by I/R. Left ventricular sections were incubated with FITC-conjugated anti-DIG antibody and coverslipped with the mounting medium containing 0.5 μg/ml of Propidium Iodide (PI).

[8] = system: DCC/ERK1/2/eNOS pathway; assay: Western blot / RT-PCR of DCC, ERK1/2, eNOS signalling in perfused hearts; set-up: species or system mouse; conditions: agent + netrin-1, I/R
Method: RT-PCR and Western blot: Total RNA was extracted from mouse hearts using TRIzol (Invitrogen, Carlsbad, Calif.) according to the manufacturer's instructions. Reverse transcription was performed in standard fashion with iScript cDNA Synthesis Kit (Bio-Rad, Hercules, Calif.). PCR was performed using the following primer pairs: PCRs were carried out on an iCycler (Bio-Rad, Hercules, Calif.) including primers generated for GAPDH, ((95° C./2 min), (95° C./25 sec, 57° C./5 sec, 68° C. 5 min)×35, (72° C./10 min)). Western blot analysis was performed as previously published. See Youn et al. (2009) Circ. Res 104:50-59, which is herein incorporated by reference. For no I/R setting, hearts were perfused with KHB or netrin-1 for 120 min. […] These experimental protocols are illustrated in FIG. 7.

[9] = system: NOS; assay: L-NAME sensitive superoxide production (NOS coupling state); set-up: species or system mouse; conditions: superoxide with and without L-NAME, I/R hearts
Method: Superoxide measurements with electron spin resonance (ESR): Superoxide production was measured from heart homogenates using ESR as previously described. Briefly, heart homogenate (10 μg) was mixed in a spin trap solution (CMH, 0.5 mmol/L), loaded into a glass capillary (Fisher Scientific) in the presence or absence of L-NAME (100 μmol/L), and assayed for superoxide using a Bio-Spin ESR spectorphotometer (Bruker) at the following settings: center field 3476; […]; frequency 9.75 GHz; microwave power 21.02 mW; modulation amplitude 2.47 G; 512 points resolution; receiver gain 1000. Netrin-1 attenuates I/R induced NOS uncoupling: To assess the coupling state of NOS under I/R and netrin-1-infused I/R conditions, superoxide production was measured with and without the addition of L-NAME, a general inhibitor of NOS. Under normal conditions when NOS is coupled, it produces nitric oxide (NO). Therefore, the addition of L-NAME will reduce the level of NO, resulting in an increase in measured superoxide production. On the other hand, if NOS is uncoupled and is producing superoxide, the addition of L-NAME will reduce measured superoxide. […] Using this method, the coupling state of whole heart homogenate from each condition was measured (n=5 each condition), with the results shown in FIG. 13.

[10] = system: heart mitochondria; assay: Mitochondrial swelling assay on mitochondria from perfused hearts; set-up: species or system mouse; conditions: isolated mitochondria, absorbance 540 nm
Method: Mitochondria isolation: Heart tissue was rinsed twice in ice cold PBS immediately after the end of the Langendorff experiment. The tissue was then homogenized in a pre-chilled glass homogenizer using isolation buffer I (sucrose 250 mM, EGTA 1 mM, HEPES10 mM, and Tris-HCl 10 mM, pH 7.4, 1 ml buffer/0.1 g tissue) on ice. The homogenate was then centrifuged at 800 g for 7 min at 4 C. The supernatant was then transferred to a new tube and centrifuged at 4000 g for 15 min at 4° C. The pellet was rinsed using 1 ml of isolation buffer II (sucrose 250 mM, HEPES 10 mM, Tris-HCl 10 mM, pH 7.4), then centrifuged again at 4000 g for 15 min at 4° C. Further purification was performed by resuspending the pellet with 3 ml of a 19% percoll solution, then layering this on top of a double layer of 30% and 60% percoll solution in a centrifugation tube. The entire tube was spun for 60 min at 1,000 g. The mitochondria layer in the tube was carefully removed. Percoll was washed from the sample by alternating centrifugation and resuspension with isolation buffer II. The final pellet was resuspended in isolation buffer II.
Mitochondrial swelling assay: 30 μg of freshly isolated mitochondria were mixed in a buffer containing 250 mM sucrose and 10 mM Tris (pH 7.4). The mixture was then incubated with 5 mM succinate for 1 minute at room temperature, then with 250 μM of CaCl2. Absorbance at 540 nm was measured immediately for 20 min at 1 minute intervals. Swelling was measured as a decrease in absorbance over time.

[11] = system: mouse heart ischemia/reperfusion injury; assay: Langendorff I/R, TTC infarct size, NOX4 siRNA or sepiapterin; conditions: TTC staining
[12] = system: cardiac superoxide production; assay: Superoxide measurement with ESR in heart homogenates after Langendorff I/R; set-up: species or system mouse; conditions: siRNA by tail vein, 2 injections
Method: Langendorff perfusion: Animals were initially anesthetized with isoflurane. Hearts from the animals were rapidly removed and transferred to ice cold modified Krebs-Henseleit buffer (KHB), consisting of (in mmol/L): NaCl118.0, KCl 4.7, CaCl2 2.5, MgSO4 1.2, Kh2PO4 1.2, NaHCO3 25.0, Glucose 10, pH 7.35. […] While under perfusion, the heart is kept in a 37° C. chamber. For no I/R, hearts were perfused with KHB for 120 min. […] These treatment protocols are illustrated in FIG. 11A. […] At the end of the Langendorff experiment, hearts were removed from the perfusion apparatus and immediately transferred onto ice awaiting homogenization. […] For Western blot analysis, the supernatant from the homogenate centrifuged at 13,000 rpm for 15 min at 4° C. was used. Superoxide measurements with electron spin resonance (ESR): Superoxide production was measured from heart homogenates using ESR as previously described. Briefly, heart homogenate (10 μg) was mixed in a spin trap solution (CMH, 0.5 mmol/L), loaded into a glass capillary (Fisher Scientific) in the presence or absence of L-NAME (100 μmol/L), and assayed for superoxide using a Bio-Spin ESR spectorphotometer (Bruker) at the following settings: center field 3476; […]; frequency 9.75 GHz; microwave power 21.02 mW; modulation amplitude 2.47 G; 512 points resolution; receiver gain 1000.

[13] = system: NOX4; assay: Western blot of NOX isoforms from whole heart homogenate; set-up: species or system mouse; conditions: NOX4 siRNA in vivo
Description: Preparation of heart tissue for biochemical assays: At the end of the Langendorff experiment, hearts were removed from the perfusion apparatus and immediately transferred onto ice awaiting homogenization. For superoxide measurement and Western blot analysis, hearts were homogenized with ice cold homogenization buffer (Tris 50 mmol/L, EDTA 0.1 mmol/L, EGTA 0.1 mmol/L, protease inhibitor cocktail, pH 7.4) on ice using a glass homogenizer. For Western blot analysis, the supernatant from the homogenate centrifuged at 13,000 rpm for 15 min at 4° C. was used.
Western blot: Western blotting was performed as per standard protocols. Primary antibody for NOX4 (Abcam, Cambridge, Mass.) was used at a dilution of 1:1000. Primary antibody for actin (Sigma-Aldrich, St. Louis, Mo.) was used at a dilution of 1:3000. Secondary antibody conjugated to HRP (Bio-Rad, Hercules, Calif.) was used at a dilution of 1:2000 for NOX4, and 1:10000 for actin.

| Molecule | Netrin-1 stimulated NO production in hearts pre-perfused with the agent [4] | Infarct size, inhibitor alone [5] | Effect of netrin-1 postconditioning on infarct size, inhibitor co-treatment [5] | NOS coupling state under I/R [9] | Mitochondrial function (swelling) in I/R hearts [10] | Infarct size after I/R [11] | further results |
| --- | --- | --- | --- | --- | --- | --- | --- |
| CNCCCCCCN(C)/[N+]([O-])=N/O [MAMANOATE] |  |  |  |  |  |  | DCC protein expression in cultured ECs [1]: increased DCC protein expression; DCC protein expression in cardiomyocytes [2]: increased DCC protein expression |
| O=NO [Nitrite] |  |  |  |  |  |  | reduction in infarct size post I/R insult [3]: 48% |
| CC1(C)N([O])C(c2ccccc2)=[N+]([O-])C1(C)C [PTIO, 2-phenyl-4,4,5,5-tetramethylimidazoline-1-oxyl 3-oxide] | attenuated | no effect | abolished |  |  |  |  |
| N#CC(=C(N)Sc1ccccc1N)C(C#N)=C(N)Sc1ccccc1N [U0126, 1,4-diamino-2,3-dicyano-1,4-bis (2-aminophenylthio)butadiene] | 1.12±0.15 fold | no effect | abolished |  |  |  | Infarct size / cardioprotection in netrin-1-perfused hearts pre-perfused with the agent [6]: 41.3±4.1%; TUNEL positive cells, agent prior to netrin-1 [7]: 19.24±2.4%; Netrin-1 increase in phosphorylated ERK1/2 and eNOSs1177, agent prior to netrin-1 [8]: inhibited; Netrin-1 restoration of DCC protein expression, agent prior to netrin-1 [8]: abolished; AKT phosphorylation after the entire I/R procedure ([8]; data not shown): unaffected |
| C[C@H](O)C(=O)C1=Nc2c(nc(N)[nH]c2=O)NC1 [sepiapterin] |  |  |  | effective in recoupling NOS; also recorded: recouples NOS | improving mitochondria function; also recorded: improving mitochondrial function | effective in reducing infarct size | Mitochondrial function (swelling) in I/R hearts ([10]; listed as Sepiapterin): restored mitochondria function; also recorded: effectively diminished mitochondrial dysfunction |
| NOX4 siRNA: in vivo grade siRNA against NOX4 (SEQ ID NO:19, 20) delivered with nanoparticle transfection kit (chain 1 CAUGCUGCUGCUGUUGCAUGUUUCA; chain 2 CCCUCUGAUGUAAUGGAACUCCGUA; nanoparticle delivery, further chemistry not given here) |  |  |  | functional NOS; also recorded: restored | marked improvement; also recorded: improved | markedly reduced | superoxide levels in NOX4 siRNA treated hearts compared to controls [12]: increased; NOX4 protein expression in hearts of siRNA treated mice [13]: successful silencing |
